The values below come from publication PMC6912803, “Sideritis Perfoliata (Subsp. Perfoliata) Nutritive Value and Its Potential Medicinal Properties” (Antioxidants, 2019).

One experiment has as its system T1, mushroom tyrosinase.
T1 construct: gene PPO3; native commercial mushroom tyrosinase (Sigma-Aldrich), isoenzyme mixture
The experiment is described as follows: L-tyrosine oxidation, absorbance at […] nm over […] min. It counts as biochemical. Also on record: reference not given here. Conditions: 2 mM L-tyrosine stock (110 µL added), potassium phosphate pH 6.5, room temperature, 5 min preincubation.

Experiment [1] concerns the target T2, Porcine pancreatic elastase (PPE) (Sus scrofa, UniProt P00772).
T2 construct: gene CELA1; mature active protease
The experiment is described as follows: N-succinyl-(Ala)3-p-nitroanilide hydrolysis, absorbance at […] nm. In kind it is biochemical. Conditions: read-out: Positive Control MIC/IC50 ± SD (μg/mL) (converted).

T2 sequence (P00772 27-266): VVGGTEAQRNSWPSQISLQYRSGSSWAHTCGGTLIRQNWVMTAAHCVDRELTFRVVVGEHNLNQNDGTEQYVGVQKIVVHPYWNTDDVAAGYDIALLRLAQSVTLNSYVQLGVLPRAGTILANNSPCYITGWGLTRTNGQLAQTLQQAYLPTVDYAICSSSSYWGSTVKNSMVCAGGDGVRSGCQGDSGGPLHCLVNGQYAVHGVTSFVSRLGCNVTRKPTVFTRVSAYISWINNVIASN

On to `O=c1cc(CO)occ1O` [kojic acid], for which, in the experiment on mushroom tyrosinase, the “Positive Control MIC/IC50 ± SD” value was found to be 2.84 ± 0.23 mg/L.
Turning to `C[C@H]1[C@H](C)CC[C@]2(C(=O)O)CC[C@]3(C)C(=CC[C@@H]4[C@@]5(C)CC[C@H](O)C(C)(C)[C@@H]5CC[C@]43C)[C@H]12` [ursolic acid], the IC50 in experiment [1] is 40.4 µM.
